Calls of active or inactive are those of the source. The calls are words filed in the database; no cut-off is given here.
Assays:
Histone deacetylase 5 = Histone deacetylase 5 (Homo sapiens, UniProt Q9UQL6); test: Inhibition of human HDAC5 using Boc-Lys(acetyl)-AMC as fluorogenic substrate measured after 1 hr by flourescence plate reader method
[1] = molecular target: T1, Protein deacetylase HDAC6 (Homo sapiens) (UniProt Q9UBN7); test: Inhibition of HDAC6 in human K562 cells assessed as increase in alpha tubulin acetylation at 10 uM measured after 8 hrs by Western blot analysis; type: cell-based
T1 sequence (whole entry): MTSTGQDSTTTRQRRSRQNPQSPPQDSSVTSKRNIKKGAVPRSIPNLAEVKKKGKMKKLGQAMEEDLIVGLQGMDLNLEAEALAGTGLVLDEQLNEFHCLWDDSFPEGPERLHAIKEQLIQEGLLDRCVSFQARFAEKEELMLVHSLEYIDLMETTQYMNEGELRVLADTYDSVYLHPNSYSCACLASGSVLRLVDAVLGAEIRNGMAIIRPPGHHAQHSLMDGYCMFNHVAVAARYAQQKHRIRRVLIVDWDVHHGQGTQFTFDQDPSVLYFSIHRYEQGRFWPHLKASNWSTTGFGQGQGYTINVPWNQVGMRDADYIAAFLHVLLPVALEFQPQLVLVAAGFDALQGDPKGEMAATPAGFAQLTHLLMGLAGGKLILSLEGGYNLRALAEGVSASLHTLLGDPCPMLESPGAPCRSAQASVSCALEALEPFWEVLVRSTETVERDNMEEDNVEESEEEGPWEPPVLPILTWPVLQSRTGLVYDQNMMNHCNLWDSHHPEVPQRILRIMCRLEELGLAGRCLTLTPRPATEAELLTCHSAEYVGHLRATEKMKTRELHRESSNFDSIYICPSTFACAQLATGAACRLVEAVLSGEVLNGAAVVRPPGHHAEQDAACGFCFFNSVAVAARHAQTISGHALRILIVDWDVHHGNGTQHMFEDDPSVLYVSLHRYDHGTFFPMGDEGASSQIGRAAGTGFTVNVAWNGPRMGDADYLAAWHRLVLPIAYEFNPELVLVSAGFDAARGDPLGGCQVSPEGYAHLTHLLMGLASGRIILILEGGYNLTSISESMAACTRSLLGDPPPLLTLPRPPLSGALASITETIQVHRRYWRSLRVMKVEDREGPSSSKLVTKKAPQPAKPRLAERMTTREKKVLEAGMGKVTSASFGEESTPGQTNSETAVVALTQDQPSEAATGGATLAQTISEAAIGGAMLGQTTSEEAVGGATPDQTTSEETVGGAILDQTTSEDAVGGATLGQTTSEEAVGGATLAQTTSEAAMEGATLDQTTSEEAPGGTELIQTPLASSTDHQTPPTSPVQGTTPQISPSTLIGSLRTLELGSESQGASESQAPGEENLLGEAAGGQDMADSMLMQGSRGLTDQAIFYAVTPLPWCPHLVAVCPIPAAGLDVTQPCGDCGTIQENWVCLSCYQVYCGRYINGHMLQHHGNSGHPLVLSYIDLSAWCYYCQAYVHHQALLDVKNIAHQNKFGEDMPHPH

Histone deacetylase 7 = molecular target: T2, Histone deacetylase 7 (Homo sapiens, UniProt Q8WUI4); test: Inhibition of human N-terminal GST tagged HDAC7 (518 to end residues) expressed in baculovirus infected Sf9 insect cells using Boc-Lys(acetyl)-AMC as fluorogenic substrate measured after 1 hr by flourescence plate reader method
T2 sequence (Q8WUI4 whole entry): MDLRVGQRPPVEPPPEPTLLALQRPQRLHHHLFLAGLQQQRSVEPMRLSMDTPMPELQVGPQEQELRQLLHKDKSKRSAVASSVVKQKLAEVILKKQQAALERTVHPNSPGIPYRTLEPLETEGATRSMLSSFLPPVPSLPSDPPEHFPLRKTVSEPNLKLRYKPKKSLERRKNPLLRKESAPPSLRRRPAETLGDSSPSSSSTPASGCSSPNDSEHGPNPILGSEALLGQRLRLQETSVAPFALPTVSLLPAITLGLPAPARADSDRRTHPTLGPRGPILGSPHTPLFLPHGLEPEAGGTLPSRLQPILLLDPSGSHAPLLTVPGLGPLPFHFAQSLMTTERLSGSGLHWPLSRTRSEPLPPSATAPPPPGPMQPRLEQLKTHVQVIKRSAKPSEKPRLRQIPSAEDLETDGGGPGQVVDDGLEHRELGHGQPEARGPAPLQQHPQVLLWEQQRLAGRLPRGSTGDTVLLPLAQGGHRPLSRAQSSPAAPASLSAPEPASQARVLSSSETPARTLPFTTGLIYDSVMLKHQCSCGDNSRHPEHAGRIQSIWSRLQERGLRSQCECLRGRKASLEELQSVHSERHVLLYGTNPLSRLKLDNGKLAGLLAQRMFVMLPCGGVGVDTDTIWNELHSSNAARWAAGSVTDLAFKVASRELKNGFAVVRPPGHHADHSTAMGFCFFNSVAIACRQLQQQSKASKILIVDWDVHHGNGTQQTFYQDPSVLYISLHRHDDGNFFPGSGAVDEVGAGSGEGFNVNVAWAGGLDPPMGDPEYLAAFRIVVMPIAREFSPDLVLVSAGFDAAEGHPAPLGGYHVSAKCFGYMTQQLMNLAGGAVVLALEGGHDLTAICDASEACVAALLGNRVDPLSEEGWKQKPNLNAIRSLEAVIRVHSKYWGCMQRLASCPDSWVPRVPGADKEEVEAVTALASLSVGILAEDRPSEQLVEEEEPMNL

Histone deacetylase 8 = molecular target: T3, Histone deacetylase 8 (Homo sapiens, UniProt Q9BY41); test: Inhibition of full length human C-terminal His-tagged HDAC8 expressed in baculovirus infected Sf9 insect cells using Boc-Lys(acetyl)-AMC as fluorogenic substrate measured after 1 hr by flourescence plate reader method
T3 sequence (Q9BY41 whole entry): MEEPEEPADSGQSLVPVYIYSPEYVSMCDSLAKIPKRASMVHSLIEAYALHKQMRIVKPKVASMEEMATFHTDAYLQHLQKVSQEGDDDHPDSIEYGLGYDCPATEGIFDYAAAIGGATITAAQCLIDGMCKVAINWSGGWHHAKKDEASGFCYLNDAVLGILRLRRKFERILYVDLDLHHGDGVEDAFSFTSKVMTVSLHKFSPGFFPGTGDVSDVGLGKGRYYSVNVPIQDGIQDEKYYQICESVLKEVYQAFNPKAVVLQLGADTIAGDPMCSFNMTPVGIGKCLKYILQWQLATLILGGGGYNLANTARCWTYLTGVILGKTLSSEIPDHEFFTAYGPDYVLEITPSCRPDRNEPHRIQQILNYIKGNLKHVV

[2] = molecular target: T4, Protein deacetylase HDAC6 (Homo sapiens, UniProt Q9UBN7); test: Inhibition of HDAC6 (unknown origin) using Boc-Lys(acetyl)-AMC as fluorogenic substrate measured after 1 hr by flourescence plate reader method
T4 sequence (Q9UBN7 whole entry): T1 sequence (whole entry)

Histone deacetylase = test: Inhibition of HDAC in human HeLa nuclear extract using Boc-Lys(acetyl)-AMC as fluorogenic substrate measured after 1 hr by flourescence plate reader method; type: subcellular, Nucleus
Histone deacetylase 1 = Histone deacetylase 1 (Homo sapiens, UniProt Q13547); test: Inhibition of HDAC1 (unknown origin) using Boc-Lys(acetyl)-AMC as fluorogenic substrate measured after 1 hr by flourescence plate reader method
Histone deacetylase 1, sequence (Q13547 whole entry): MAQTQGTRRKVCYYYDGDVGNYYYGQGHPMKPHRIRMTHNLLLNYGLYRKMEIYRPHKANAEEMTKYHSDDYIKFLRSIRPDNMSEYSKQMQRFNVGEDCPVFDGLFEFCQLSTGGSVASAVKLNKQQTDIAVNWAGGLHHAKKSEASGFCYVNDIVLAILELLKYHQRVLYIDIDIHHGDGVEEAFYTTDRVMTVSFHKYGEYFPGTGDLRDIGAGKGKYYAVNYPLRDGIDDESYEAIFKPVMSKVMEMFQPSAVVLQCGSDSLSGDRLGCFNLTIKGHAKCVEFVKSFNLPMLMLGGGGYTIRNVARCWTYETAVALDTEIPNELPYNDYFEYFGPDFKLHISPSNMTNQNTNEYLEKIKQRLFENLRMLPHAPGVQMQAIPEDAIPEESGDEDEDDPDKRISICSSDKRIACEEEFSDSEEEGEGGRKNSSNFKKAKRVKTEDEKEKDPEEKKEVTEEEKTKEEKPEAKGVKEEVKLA

Histone deacetylase 5, sequence (Q9UQL6 whole entry): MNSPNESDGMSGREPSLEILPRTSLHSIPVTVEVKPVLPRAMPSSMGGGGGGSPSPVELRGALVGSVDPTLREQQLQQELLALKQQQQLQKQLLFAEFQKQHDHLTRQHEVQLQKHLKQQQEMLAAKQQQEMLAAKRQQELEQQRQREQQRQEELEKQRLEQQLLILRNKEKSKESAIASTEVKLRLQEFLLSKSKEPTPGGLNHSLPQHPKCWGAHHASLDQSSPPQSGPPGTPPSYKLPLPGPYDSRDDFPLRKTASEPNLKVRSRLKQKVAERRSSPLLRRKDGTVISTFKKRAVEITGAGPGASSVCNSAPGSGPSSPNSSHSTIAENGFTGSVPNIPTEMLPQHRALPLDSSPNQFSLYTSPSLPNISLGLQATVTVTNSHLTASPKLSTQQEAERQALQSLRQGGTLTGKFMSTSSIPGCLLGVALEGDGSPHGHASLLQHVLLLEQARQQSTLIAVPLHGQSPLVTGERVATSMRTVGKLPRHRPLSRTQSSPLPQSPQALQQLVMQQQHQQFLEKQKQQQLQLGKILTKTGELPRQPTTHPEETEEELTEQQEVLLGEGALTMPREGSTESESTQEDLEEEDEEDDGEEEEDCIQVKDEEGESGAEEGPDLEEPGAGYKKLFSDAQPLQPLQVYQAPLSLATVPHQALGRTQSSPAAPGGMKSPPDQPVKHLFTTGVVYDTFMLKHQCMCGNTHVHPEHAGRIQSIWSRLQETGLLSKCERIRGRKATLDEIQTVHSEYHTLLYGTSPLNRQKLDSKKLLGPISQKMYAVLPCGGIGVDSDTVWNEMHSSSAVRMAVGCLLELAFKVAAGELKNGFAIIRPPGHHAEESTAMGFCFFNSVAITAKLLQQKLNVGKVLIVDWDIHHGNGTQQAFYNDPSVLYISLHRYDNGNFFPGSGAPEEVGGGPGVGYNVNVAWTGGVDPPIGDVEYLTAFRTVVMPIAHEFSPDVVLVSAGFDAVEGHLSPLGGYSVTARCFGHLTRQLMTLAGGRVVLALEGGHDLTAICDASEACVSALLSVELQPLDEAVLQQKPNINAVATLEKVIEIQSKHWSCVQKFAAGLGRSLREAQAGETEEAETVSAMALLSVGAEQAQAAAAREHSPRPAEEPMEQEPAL

Row | SMILES | IC50 (Histone deacetylase 5) | inhibition [1] | IC50 (Histone deacetylase 7) | IC50 (Histone deacetylase 8) | IC50 [2] | IC50 (Histone deacetylase) | IC50 (Histone deacetylase 1)
1 | O=C(CCCSC[C@H](NC(=O)c1ccccc1)C(=O)Nc1ccccc1)NO | > 200 nM | Active | > 200 nM | > 200 nM | 13.7 nM | 52.7 nM | 198 nM
2 | O=C(CCCSC[C@H](NC(=O)OCc1ccccc1)C(=O)Nc1cccc2ccccc12)NO | > 200 nM | Active | > 200 nM | > 200 nM | 19.6 nM | 72.4 nM | 150 nM
3 | O=C(CCCSC[C@H](NC(=O)OCc1ccccc1)C(=O)Nc1ccccc1)NO | > 200 nM | Active | > 200 nM | > 200 nM | 20.6 nM | 75.1 nM | 172 nM

Reference: ChEMBL document CHEMBL5055644, “Cysteine derivatives as acetyl lysine mimics to inhibit zinc-dependent histone deacetylases for treating cancer” (Eur J Med Chem, 2021)
